Data reported in PMC11620503 (Antimicrobial Agents and Chemotherapy, 2024).
Values after ≈ are worked out from the molar mass of the structure shown. Like-named read-outs stand apart in the source and are kept apart here.

What was measured:
[1] = test system: Pseudomonas aeruginosa ATCC 27853; assay: MIC, reference strains of aerobic bacteria; type: cell-based; conditions: ATCC27853
[2] = test system: E. coli CDC-151 (NDM-5), PBP3 mutations; assay: MIC, broth microdilution; type: cell-based; conditions: Escherichia coli, fixed BLI concentration (μg/mL) in parentheses in label
[3] = test system: Enterococcus faecalis ATCC 29212; assay: MIC, reference strains of aerobic bacteria; type: cell-based; conditions: ATCC29212
[4] = test system: Streptococcus pyogenes ATCC 12344; assay: MIC, reference strains of aerobic bacteria; type: cell-based; conditions: ATCC12344
[5] = test system: Enterobacter cloacae NBRC 13535 (ATCC 13047); assay: MIC, reference strains of aerobic bacteria; type: cell-based
[6] = test system: E. coli CDC-435 (NDM-1), PBP3 mutations; assay: MIC, broth microdilution; type: cell-based; conditions: Escherichia coli, fixed BLI concentration (μg/mL) in parentheses in label
[7] = test system: E. coli CDC-162 (NDM-7), PBP3 mutations; assay: MIC, broth microdilution; type: cell-based; conditions: Escherichia coli
[8] = test system: E. coli CDC-150 (NDM-5), PBP3 mutations; assay: MIC, broth microdilution; type: cell-based; conditions: Escherichia coli, fixed BLI concentration (μg/mL) in parentheses in label
[9] = test system: E. coli CDC-119 (NDM-1), PBP3 mutations; assay: MIC, broth microdilution; type: cell-based; conditions: Escherichia coli
[10] = test system: 96 P. aeruginosa; assay: MIC, broth microdilution; type: cell-based, Pseudomonas aeruginosa
[11] = test system: Staphylococcus lugdunensis KUB4804; assay: MIC, reference strains of aerobic bacteria; type: cell-based
[12] = test system: Cefepime/taniborbactam-nonsusceptible Enterobacterales with metallo-carbapenemases (25); assay: MIC, broth microdilution; type: cell-based; conditions: CDC AR Bank
[13] = test system: MBL-producing isolates (Enterobacterales); assay: MIC, broth microdilution; type: cell-based; conditions: for MIC50 / MIC90: fixed concentration (μg/mL) in label; for MIC50: read-out: MIC50; for MIC90: read-out: MIC90
[14] = test system: Proteus mirabilis NBRC 3849 (NCTC 6197); assay: MIC, reference strains of aerobic bacteria; type: cell-based
[15] = test system: Staphylococcus aureus ATCC 6538P/methicillin-sensitive; assay: MIC, reference strains of aerobic bacteria; type: cell-based; conditions: ATCC6538P
[16] = test system: MEM-, imipenem/relebactam-, and ceftolozane/tazobactam-nonsusceptible P. aeruginosa; assay: MIC, broth microdilution; type: cell-based, Pseudomonas aeruginosa; conditions: for CLSI MIC interpretation I (intermediate) / CLSI MIC interpretation R (resistant) / CLSI MIC interpretation S (susceptible): CLSI breakpoints, marked c: breakpoints for β-lactam alone; for MIC50: Pseudomonas aeruginosa, fixed concentration (μg/mL) in label, read-out: MIC50
[17] = test system: MEM-nonsusceptible Enterobacterales with metallo-carbapenemases; assay: MIC, broth microdilution; type: cell-based; conditions: for CLSI MIC interpretation I (intermediate) / CLSI MIC interpretation R (resistant) / CLSI MIC interpretation S (susceptible): CLSI breakpoints, marked c: breakpoints for β-lactam alone; for MIC50 / MIC90: fixed concentration (μg/mL) in label
[18] = target: SHV-5 (Klebsiella pneumoniae, UniProt P0A3M1); assay: Ki app determination (Waley's method)
[19] = test system: Fusobacterium varium ATCC 27725; assay: MIC, agar dilution, reference strains of anaerobic bacteria; type: cell-based; conditions: ATCC27725
[20] = test system: the other seven anaerobic strains; assay: Intrinsic antibacterial activity, MIC agar dilution; type: cell-based
Protocol: MICs were determined by the broth microdilution method and agar dilution method (for anaerobic bacteria only) according to CLSI ([37], [38]). When investigating the effect of HSA on the MICs, CAMHB with 4% HSA (FUJIFILM Wako Pure Chemical Corporation) was used. […] The MBC was defined as the lowest drug concentration at which ≥99.9% of the original inoculum was killed.

[21] = target: KPC-2 (Klebsiella pneumoniae, UniProt Q9F663); assay: Ki app determination (Waley's method)
[22] = test system: Clostridioides difficile ATCC 43255; assay: MIC, agar dilution, reference strains of anaerobic bacteria; type: cell-based; conditions: ATCC43255
[23] = target: VIM-2 (Escherichia coli, UniProt Q5U7L7); assay: Ki app determination (Waley's method)
[24] = target: NDM-5 (Klebsiella pneumoniae, UniProt C7C422, M154L/V88L); assay: Ki app determination (Waley's method)
[25] = target: OXA-24 (Acinetobacter baumannii, UniProt Q8RLA6); assay: Ki app determination (Waley's method)
[26] = test system: 20 anaerobic strains (including Clostridium perfringens, Atopobium rimae, Bacteroides spp., and Prevotella spp.); type: cell-based
[27] = Pseudomonas aeruginosa (96), CLSI breakpoints, marked c: breakpoints for β-lactam alone
[28] = CLSI breakpoints, marked c: breakpoints for β-lactam alone
[29] = fixed concentration (μg/mL) in label
[30] = Enterobacterales with metallo-carbapenemases (47), CDC AR Bank, CLSI breakpoints, marked c: breakpoints for β-lactam alone
[31] = Enterobacterales with metallo-carbapenemases (47), CDC AR Bank
[32] = Enterobacterales with metallo-carbapenemases (74), cefiderocol 73 isolates, CLSI breakpoints, marked c: breakpoints for β-lactam alone, tigecycline: FDA breakpoints
[33] = Enterobacterales with metallo-carbapenemases (74), cefiderocol 73 isolates
[34] = Ceftolozane/tazobactam-nonsusceptible Pseudomonas aeruginosa (45)
[35] = Imipenem/relebactam-nonsusceptible Pseudomonas aeruginosa (43)
[36] = MEM-nonsusceptible Pseudomonas aeruginosa (76)
[37] = MEM-nonsusceptible Enterobacterales with metallo-carbapenemases (41), CDC AR Bank
[38] = MEM-nonsusceptible Enterobacterales with metallo-carbapenemases (55), cefiderocol 54 isolates, tigecycline: FDA breakpoints

Chain of SHV-5 (P0A3M1 22-286): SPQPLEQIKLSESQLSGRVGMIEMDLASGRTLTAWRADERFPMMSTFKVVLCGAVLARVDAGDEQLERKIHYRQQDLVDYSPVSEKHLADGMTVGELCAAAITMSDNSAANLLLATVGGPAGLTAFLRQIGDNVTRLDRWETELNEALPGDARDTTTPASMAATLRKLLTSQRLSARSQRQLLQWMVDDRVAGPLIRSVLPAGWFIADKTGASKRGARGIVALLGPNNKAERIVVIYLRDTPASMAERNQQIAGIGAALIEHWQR
Chain of NDM-5 (C7C422 29-270 V88L/M154L): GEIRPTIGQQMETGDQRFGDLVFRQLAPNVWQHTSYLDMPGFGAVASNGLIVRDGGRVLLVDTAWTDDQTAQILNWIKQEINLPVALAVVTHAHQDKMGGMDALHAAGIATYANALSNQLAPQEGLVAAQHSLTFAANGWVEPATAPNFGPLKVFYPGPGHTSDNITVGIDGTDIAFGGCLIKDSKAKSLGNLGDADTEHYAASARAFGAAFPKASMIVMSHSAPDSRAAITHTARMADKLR
Chain of OXA-24 (Q8RLA6 20-275 limits assumed): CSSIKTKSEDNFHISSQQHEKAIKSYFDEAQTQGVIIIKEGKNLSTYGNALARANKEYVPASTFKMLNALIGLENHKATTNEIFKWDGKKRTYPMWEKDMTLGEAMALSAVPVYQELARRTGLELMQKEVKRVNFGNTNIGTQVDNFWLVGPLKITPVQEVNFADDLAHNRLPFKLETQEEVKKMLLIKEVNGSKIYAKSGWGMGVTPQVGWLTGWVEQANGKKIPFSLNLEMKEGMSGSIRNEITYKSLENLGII
Chain of KPC-2 (Q9F663 25-293, looked up, species assumed): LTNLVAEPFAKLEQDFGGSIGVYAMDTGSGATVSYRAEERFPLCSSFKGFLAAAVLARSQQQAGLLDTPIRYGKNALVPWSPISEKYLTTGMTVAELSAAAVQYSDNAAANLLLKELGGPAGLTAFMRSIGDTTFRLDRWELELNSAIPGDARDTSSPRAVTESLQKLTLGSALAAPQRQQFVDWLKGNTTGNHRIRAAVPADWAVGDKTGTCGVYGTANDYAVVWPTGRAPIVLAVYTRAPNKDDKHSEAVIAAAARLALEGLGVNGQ

C[C@@H](O)[C@H]1C(=O)N2C(C(=O)O)=C(S[C@@H]3CN[C@H](C(=O)N(C)C)C3)[C@H](C)[C@H]12 [MEM, meropenem]
MIC [1]: 0.25 µg/mL (≈ 0.652 µM)
MIC [2]: 8 µg/mL (≈ 20.9 µM)
MIC [3]: 1 µg/mL (≈ 2.61 µM)
MIC [4]: ≤ 0.03 µg/mL
MIC [5]: 0.12 µg/mL (≈ 0.313 µM)
MIC [6]: 32 µg/mL (≈ 83.4 µM)
MIC [7]: 32 µg/mL (≈ 83.4 µM)
MIC [8]: > 32 µg/mL
MIC [9]: 32 µg/mL (≈ 83.4 µM)
CLSI MIC interpretation I (intermediate) [10, 27]: 11.5%
CLSI MIC interpretation R (resistant) [10, 27]: 67.7%
CLSI MIC interpretation S (susceptible) [10, 27]: 20.8%
MIC50 ([10]; Pseudomonas aeruginosa (96), fixed concentration (μg/mL) in label): 16 µg/mL (≈ 41.7 µM)
MIC50 ([10]; Pseudomonas aeruginosa, read-out: MIC50): 16 µg/mL (≈ 41.7 µM)
MIC [11]: 0.12 µg/mL (≈ 0.313 µM)
CLSI MIC interpretation I (intermediate) [12, 28]: 0%
CLSI MIC interpretation R (resistant) [12, 28]: 96%
CLSI MIC interpretation S (susceptible) [12, 28]: 4%
MIC50 [12, 29]: 32 µg/mL (≈ 83.4 µM)
MIC90 [12, 29]: > 32 µg/mL
CLSI MIC interpretation I (intermediate) [13, 30]: 10.6%
CLSI MIC interpretation R (resistant) [13, 30]: 76.6%
MIC50 [13, 31]: 16 µg/mL (≈ 41.7 µM)
MIC90 [13, 31]: > 32 µg/mL
CLSI MIC interpretation I (intermediate) [13, 32]: 9.5%
CLSI MIC interpretation R (resistant) [13, 32]: 64.9%
CLSI MIC interpretation S (susceptible) [13, 32]: 25.7%
MIC50 [13, 33]: 8 µg/mL (≈ 20.9 µM)
MIC90 [13, 33]: > 32 µg/mL
MIC [14]: ≤ 0.03 µg/mL
MIC [15]: 0.06 µg/mL (≈ 0.156 µM)
CLSI MIC interpretation I (intermediate) [16, 34]: 6.7%
CLSI MIC interpretation R (resistant) [16, 34]: 91.1%
CLSI MIC interpretation S (susceptible) [16, 34]: 2.2%
CLSI MIC interpretation I (intermediate) [16, 35]: 4.7%
CLSI MIC interpretation R (resistant) [16, 35]: 95.3%
CLSI MIC interpretation S (susceptible) [16, 35]: 0%
CLSI MIC interpretation I (intermediate) [16, 36]: 14.5%
CLSI MIC interpretation R (resistant) [16, 36]: 85.5%
CLSI MIC interpretation S (susceptible) [16, 36]: 0%
MIC50 [16, 34]: 64 µg/mL
MIC50 [16, 35]: 64 µg/mL
MIC50 [16, 36]: 16 µg/mL (≈ 41.7 µM)
CLSI MIC interpretation I (intermediate) [17, 37]: 12.2%
CLSI MIC interpretation R (resistant) [17, 37]: 87.8%
CLSI MIC interpretation S (susceptible) [17, 37]: 0%
MIC50 [17, 37]: 16 µg/mL (≈ 41.7 µM)
MIC90 [17, 37]: >32 µg/mL
CLSI MIC interpretation I (intermediate) [17, 38]: 12.7%
CLSI MIC interpretation R (resistant) [17, 38]: 87.3%
CLSI MIC interpretation S (susceptible) [17, 38]: 0%
MIC50 ([17]; MEM-nonsusceptible Enterobacterales with metallo-carbapenemases (55), cefiderocol 54 isolates, read-out: MIC50): 16 µg/mL (≈ 41.7 µM)
MIC90 ([17]; MEM-nonsusceptible Enterobacterales with metallo-carbapenemases (55), cefiderocol 54 isolates, read-out: MIC90): > 32 µg/mL

N[C@@H](C(=O)N1CC(Oc2ccc3c(c2C(=O)O)OB(O)CC3)C1)c1c[nH]cn1 [KSP-1007, 7-({1-[(2R)-2-amino-2-(1H-imidazol-4-yl)acetyl]azetidin-3-yl}oxy)-2-hydroxy-3,4-dihydro-2H-1,2-benzoxaborinine-8-carboxylic acid]
MIC [1]: > 128 µg/mL
MIC [3]: 64 µg/mL (≈ 166 µM)
Ki [18]: 127 ± 16 nM
MIC [19]: > 256 µg/mL
MIC [20]: > 256 µg/mL
MIC [4]: 4 µg/mL (≈ 10.4 µM)
MIC [5]: > 128 µg/mL
Ki [21]: 1.46 ± 0.0574 nM
MIC [22]: > 256 µg/mL
Ki [23]: 1210 nM
Ki [24]: 31.6 ± 12.3 nM
Ki [25]: 1.09 ± 0.387 nM
MIC [11]: 4 µg/mL (≈ 10.4 µM)
MIC [14]: > 128 µg/mL
MIC [15]: 8 µg/mL (≈ 20.7 µM)
MICs, range [26]: 2 to 256 µg/mL
